Test results published in patent US3955959A, “Herbicide for use in transplanted rice” (priority 1974, dated 1976).

Legend:
transplanted rice = test: Example 1 field test, rice injury; assay type: in vivo, rice (Watanabe variety)
Description: In the field test 48 day-old seedlings (Watanabe variety) were transplanted to plots 2.5 × 6 m. seeded with the weed seeds indicated in Table 1. At 5 and 10 DAT periods, the herbicides were applied to the plants (now at the 1.2 and 2.0 leaf stage, respectively, of grass weed) at the indicated rate in kilograms per hectare (kg/ha). The weed control and rice injury results for 3 replications are reported in percentages as of the indicated times of observation. The percentages given in the "Perennials" column are based on the weight of the weeds at 63 DAT, i.e., 42 gms/3.6 m^2 for the weedy check.

[1] = system: Sedges: Cd, Ci, Fl (Cyperus difformis, Cyperus iria, Fimbristylis littoralis); test: Example 3 field test on Dapog rice, weed control, Munoz, Philippines; assay type: in vivo; details: obs. 42 DAT
Description: Treatments were replicated four times.

[2] = system: Obw (other broadleaf weeds); test: Example 5 field test, weed control, JAAPR, Japan; assay type: in vivo; details: 1.5 kg/ha, 7 DAT
Description: In the tests described in the tables below, the herbicides were formulated and used in granular form in conventional manner. […] The commercial herbicide used was a granular product having 5% active ingredient.
In the field tests of the herbicide of this invention with transplanted rice, the rice seedlings were grown in conventional manner, by seeding the rice in a typical seedbed of sandy loam to clay soil of the country wherein the test was conducted. For laboratory and greenhouse work the seedlings were obtained by seeding rice in a mixture of soil, e.g., Ray silt loam, and peat in wood flats. For purposes of testing the herbicides on younger rice seedlings (infant or Dapog) the rice was usually allowed to grow for 6-15 days before lifting for transplanting. Older (ordinary) rice plants were usually grown for a period of about 2-3 weeks, or as much as about 7 weeks before lifting. Since the period of growth is dependent upon climatic conditions, a better measure of when to transplant the rice seedling is the leaf stage of growth; for infant or Dapog rice the seedling is lifted at the 1.5-2 leaf stage of growth, and for ordinary seedlings at the 2.5-5 leaf stage. The seedlings were then transplanted to the test plots for evaluation of the herbicide for injury against weed species present with the transplanted rice. The herbicides were then applied to the growth medium of the weeds and transplant rice, either preemergent or postemergent with respect to the weeds and postemergent with respect to the transplanted rice. Application times are designated in the tables as "DAT", meaning "days after transplant". Application rates given in the tables refer to the amount of active ingredient used.
The rice seedlings were grown to the 1.7 leaf stage for infant seedlings and to the 5.5 leaf stage for ordinary seedlings. Two days after puddling the soil in which the seedlings were to be transplanted, both infant and ordinary seedlings were transplanted into plots 8.5 m^2.
The weed symbol "Obw" represents "other broadleaf weeds" of unspecified identity.

Ce (Cyperus esculentus) = test: Example 7 greenhouse preemergence activity; assay type: in vivo
Description: In a further comparative study of the preemergence activity of Herbicides A and B, a variety of weeds and upland direct-seeded rice were tested under greenhouse conditions. The present invention is not concerned with the use of Herbicide A in direct-seeded rice. The primary purpose of the experimental work in this example is to compare relative herbicidal activity of Herbicides A and B against the weeds shown in Table 7; most of these weeds were not available for tests with transplanted rice. Although the relative selectivity of these herbicides in upland rice is also evident, that aspect of the tests is more or less incidental to the purpose of this example.
In this example, rice seeds and seeds of the weeds shown in Table 7 were sown in Ray silt loam soil at a depth of 0.5 inch (1.27 cm) in containers for the soil in a greenhouse. Herbicides A and B were applied to the surface of the soil at a spray volume equivalent to 20 gals/acre (187.1 liters/hectare), followed by 0.5 in (1.27 cm) of overhead irrigation. Temperature and relative humidity in the greenhouse were on the order of 85°F (29°C) and 75%, respectively. Observations were made at 21-28 days after seeding.
In Table 7 are shown the average rates of herbicide required to cause a growth reduction of 85% of the weeds ("GR85 "), and the average rate of herbicide required to cause a growth reduction of 15% ("GR15 ") of the rice plants (Oryza sativa, "Os", variety Bluebelle).

[3] = system: weeds in transplanted rice; test: Field tests / general herbicidal activity in transplanted rice; assay type: in vivo; details: field tests

## CCCCOCN(C(=O)CCl)c1c(CC)cccc1CC [Herbicide B, n-(butoxymethyl)-2',6'-diethyl-2-chloroacetanilide, reference compound]
Transplanted rice; 5 DAT, 1.0 kg/ha, obs. 21 DAT
  % Rice Injury: 0%
Transplanted rice; 5 DAT, 1.0 kg/ha, obs. 42 DAT
  % Rice Injury: 0%
Transplanted rice; 5 DAT, 1.5 kg/ha, obs. 21 DAT
  % Rice Injury: 0%
Transplanted rice; 5 DAT, 1.5 kg/ha, obs. 42 DAT
  % Rice Injury: 0%
Transplanted rice; 5 DAT, 3.0 kg/ha, obs. 21 DAT
  % Rice Injury: 5%
Transplanted rice; 5 DAT, 3.0 kg/ha, obs. 42 DAT
  % Rice Injury: 0%
Transplanted rice; 10 DAT, 1.0 kg/ha, obs. 21 DAT
  % Rice Injury: 0%
Transplanted rice; 10 DAT, 1.0 kg/ha, obs. 42 DAT
  % Rice Injury: 0%
Transplanted rice; 10 DAT, 1.5 kg/ha, obs. 21 DAT
  % Rice Injury: 0%
Transplanted rice; 10 DAT, 1.5 kg/ha, obs. 42 DAT
  % Rice Injury: 0%
Transplanted rice; 10 DAT, 3.0 kg/ha, obs. 21 DAT
  % Rice Injury: 0%
Transplanted rice; 10 DAT, 3.0 kg/ha, obs. 42 DAT
  % Rice Injury: 0%
[1]; 5 DAT, 1.0 kg/ha
  % Weed control, Sedges (Cd, Ci, Fl): 100%
[1]; 5 DAT, 1.5 kg/ha
  % Weed control, Sedges (Cd, Ci, Fl): 100%
[1]; 5 DAT, 3.0 kg/ha
  % Weed control, Sedges (Cd, Ci, Fl): 100%
[1]; 14 DAT, 1.0 kg/ha
  % Weed control, Sedges (Cd, Ci, Fl): 0%
[1]; 14 DAT, 1.5 kg/ha
  % Weed control, Sedges (Cd, Ci, Fl): 0%
[1]; 14 DAT, 3.0 kg/ha
  % Weed control, Sedges (Cd, Ci, Fl): 70%
[2]
  control of Obw in words: complete control
[2]; infant seedlings
  % Weed Control (Obw): 100%
[2]; ordinary seedlings
  % Weed Control (Obw): 71%
Ce (Cyperus esculentus)
  resistance of Ce: resists
[3]
  latest/optimum application stage of weeds: 1 leaf stage
